Data reported in the supplement of paper PMC10307832.

What was measured:
Test in all cases: relative viability (nuclei count vs DMSO), 5 days (fraction); higher = more cells survive
[1] = compound: CC1(C)CCC(CN2CCN(c3ccc(C(=O)NS(=O)(=O)c4ccc(NCC5CCOCC5)c([N+](=O)[O-])c4)c(Oc4cnc5[nH]ccc5c4)c3)CC2)=C(c2ccc(Cl)cc2)C1 [Venetoclax] + Nc1ncn([C@H]2C[C@H](O)[C@@H](CO)O2)c(=O)n1 [Decitabine] (partner 2 µM)
Method in brief: (§1)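 Lung cancer cell lines were seeded in 1536-well plates and dosed by pin tool the next day, with either a single drug or a fixed anchor-drug dose combined with five library-drug doses (not always all listed) spaced in √10 steps. Five days later, one step fixed the cells and stained their nuclei (final 0.05% Triton X-100, 1% formaldehyde, 1 ug/ml Hoechst), and nuclei were counted on 4× images. Relative viability is the nuclei count in treated wells divided by the count in vehicle wells, and each value is the median of duplicate plates.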

[2] = compound: CC1(C)CCC(CN2CCN(c3ccc(C(=O)NS(=O)(=O)c4ccc(NCC5CCOCC5)c([N+](=O)[O-])c4)c(Oc4cnc5[nH]ccc5c4)c3)CC2)=C(c2ccc(Cl)cc2)C1 [Venetoclax] + COc1cccc2cc(-c3nc([C@H]4CC[C@H](C(=O)O)CC4)n4ncnc(N)c34)[nH]c12 [OSI-027] (partner 0.5 µM)
Method in brief: as §1

[3] = compound: Cn1cnc2c(F)c(Nc3ccc(Br)cc3Cl)c(C(=O)NOCCO)cc21 [Selumetinib] + COc1cccc2cc(-c3nc([C@H]4CC[C@H](C(=O)O)CC4)n4ncnc(N)c34)[nH]c12 [OSI-027] (partner 0.5 µM)
Method in brief: as §1

[4] = compound: CC1(C)CCC(CN2CCN(c3ccc(C(=O)NS(=O)(=O)c4ccc(NCC5CCOCC5)c([N+](=O)[O-])c4)c(Oc4cnc5[nH]ccc5c4)c3)CC2)=C(c2ccc(Cl)cc2)C1 [Venetoclax] + C[C@@H](Oc1cc(-c2cnn(C3CCNCC3)c2)cnc1N)c1c(Cl)ccc(F)c1Cl [Crizotinib] (partner 1 µM)
Method in brief: as §1

Cell Line	relative viability ([1]; first compound 0.01 µM)	relative viability ([1]; first compound 0.03162 µM)	relative viability ([1]; first compound 0.1 µM)	relative viability ([1]; first compound 0.3162 µM)	relative viability ([1]; first compound 1 µM)	relative viability ([2]; first compound 0.01 µM)	relative viability ([2]; first compound 0.03162 µM)	relative viability ([2]; first compound 0.1 µM)	relative viability ([2]; first compound 0.3162 µM)	relative viability ([2]; first compound 1 µM)	relative viability ([3]; first compound 0.02 µM)	relative viability ([3]; first compound 0.06325 µM)	relative viability ([3]; first compound 0.2 µM)	relative viability ([3]; first compound 0.6325 µM)	relative viability ([4]; first compound 0.01 µM)	relative viability ([4]; first compound 0.03162 µM)	relative viability ([4]; first compound 0.1 µM)	relative viability ([4]; first compound 0.3162 µM)	relative viability ([4]; first compound 1 µM)
BEN	0.747	0.721	0.737	0.653	0.673	0.291	0.295	0.289	0.281	0.281	0.276	0.315	0.274	0.295	0.825	0.81	0.727	0.851	0.817
NCI-H2405	0.763	0.683	0.74	0.717	0.633	0.64	0.711	0.624	0.612	0.619	0.721	0.661	0.585	0.412	0.856	0.881	0.771	0.824	0.79
201T	0.774	0.834	0.792	0.82	0.825	0.728	0.724	0.687	0.774	0.628	0.658	0.674	0.628	0.691	1.01	0.995	0.989	0.948	1.05
NCI-H2170	0.442	0.46	0.431	0.451	0.473	0.597	0.802	0.552	0.713	0.633	0.712	0.714	0.664	0.684	1.07	1.23	1.12	1.15	1.13
NCI-H596	1.16	0.998	0.923	0.914	0.935	0.704	0.748	0.694	0.748	0.587	0.775	0.673	0.693	0.571	1.14	0.893	1.02	1.02	1.02
NCI-H838	0.53	0.485	0.445	0.449	0.477	0.493	0.405	0.37	0.377	0.435	0.31	0.327	0.315	0.252	0.815	0.854	0.8	0.88	0.795
HCC-366	0.354	0.368	0.327	0.366	0.382	0.873	0.958	0.628	0.95	0.573	0.911	0.756	0.72	0.422	0.502	0.609	0.621	0.505	0.388
NCI-H1651	0.611	0.701	0.548	0.512	0.665	0.804	0.714	0.62	0.596	0.658	0.815	0.585	0.627	0.693	0.866	0.856	0.879	0.889	0.825
ABC-1	1.07	1.24	1.02	1.12	1.24	0.569	0.536	0.444	0.488	0.442	0.373	0.403	0.367	0.345	0.921	0.99	1.06	1.12	1.04
LOU-NH91	0.76	0.808	0.816	0.821	0.778	0.674	0.762	0.726	0.755	0.673	0.701	0.68	0.646	0.615	0.751	0.751	0.756	0.729	0.697
NCI-H520	0.526	0.506	–	0.557	0.458	0.262	0.287	0.209	0.253	0.217	0.242	0.243	0.243	0.238	0.769	0.698	0.658	0.835	0.698
H3255	0.657	0.582	0.496	0.635	0.597	0.577	0.541	0.493	0.506	0.668	0.511	0.661	0.582	0.593	0.815	0.824	0.837	0.773	1.05
